Measurements taken from ChEMBL document CHEMBL1201861, “Genomics of Drug Sensitity in Cancer screening data, Wellcome Trust Sanger Institute”.

tested on: NCI-H2405; assay: cells; assay type: functional, cell-based; conditions: Homo sapiens;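 also: growth inhibition of the human cell line, read out with a cell viability assay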
Description: SANGER: Inhibition of human NCI-H2405 cell growth in a cell viability assay.

Compound	IC50 [µM]
NC1(c2ccc(-c3nc4ccn5c(=O)[nH]nc5c4cc3-c3ccccc3)cc2)CCC1 [MK-2206]	> 4

tested on: EFO-27; assay: cells; assay type: functional, cell-based; conditions: Homo sapiens;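 also: growth inhibition of EFO-27 cells, read out with a cell viability assay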
Description: SANGER: Inhibition of human EFO-27 cell growth in a cell viability assay.

Compound	IC50 [µM]
NC1(c2ccc(-c3nc4ccn5c(=O)[nH]nc5c4cc3-c3ccccc3)cc2)CCC1 [MK-2206]	> 4

tested on: GAMG; assay: cells; assay type: functional, cell-based; conditions: Homo sapiens;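 also: cell growth inhibition measured by a viability assay in the GAMG human cell line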
Description: SANGER: Inhibition of human GAMG cell growth in a cell viability assay.

Compound	IC50 [µM]
NC1(c2ccc(-c3nc4ccn5c(=O)[nH]nc5c4cc3-c3ccccc3)cc2)CCC1 [MK-2206]	2.24

tested on: HCC1954; assay: cells; assay type: functional, cell-based; conditions: Homo sapiens;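 also: growth inhibition of human HCC1954 cells, read out with a cell viability assay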
Description: SANGER: Inhibition of human HCC1954 cell growth in a cell viability assay.

Compound	IC50 [µM]
NC1(c2ccc(-c3nc4ccn5c(=O)[nH]nc5c4cc3-c3ccccc3)cc2)CCC1 [MK-2206]	> 4

tested on: HGC-27; assay: cells; assay type: functional, cell-based; conditions: Homo sapiens;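 also: growth inhibition of human HGC-27 cells, read out in a cell viability assay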
Description: SANGER: Inhibition of human HGC-27 cell growth in a cell viability assay.

Compound	IC50 [µM]
NC1(c2ccc(-c3nc4ccn5c(=O)[nH]nc5c4cc3-c3ccccc3)cc2)CCC1 [MK-2206]	0.568

tested on: NCI-H522; assay: cells; assay type: functional, cell-based; conditions: Homo sapiens;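 also: cell viability assay measuring growth inhibition of human NCI-H522 cells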
Description: SANGER: Inhibition of human NCI-H522 cell growth in a cell viability assay.

Compound	IC50 [µM]
NC1(c2ccc(-c3nc4ccn5c(=O)[nH]nc5c4cc3-c3ccccc3)cc2)CCC1 [MK-2206]	> 4

tested on: HLE; assay: cells; assay type: functional, cell-based; conditions: Homo sapiens;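 also: growth inhibition of human HLE cells, read out by a cell viability assay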
Description: SANGER: Inhibition of human HLE cell growth in a cell viability assay.

Compound	IC50 [µM]
NC1(c2ccc(-c3nc4ccn5c(=O)[nH]nc5c4cc3-c3ccccc3)cc2)CCC1 [MK-2206]	> 4

tested on: A-427; assay: cells; assay type: functional, cell-based; conditions: Homo sapiens;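 also: growth inhibition of human A-427 cells, read out by a cell viability assay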
Description: SANGER: Inhibition of human A427 cell growth in a cell viability assay.

Compound	IC50 [µM]
NC1(c2ccc(-c3nc4ccn5c(=O)[nH]nc5c4cc3-c3ccccc3)cc2)CCC1 [MK-2206]	> 4

tested on: SW626; assay: cells; assay type: functional, cell-based; conditions: Homo sapiens;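 also: growth inhibition of SW626 cells, measured with a cell viability assay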
Description: SANGER: Inhibition of human SW626 cell growth in a cell viability assay.

Compound	IC50 [µM]
NC1(c2ccc(-c3nc4ccn5c(=O)[nH]nc5c4cc3-c3ccccc3)cc2)CCC1 [MK-2206]	> 4

tested on: CAMA-1; assay: cells; assay type: functional, cell-based; conditions: Homo sapiens;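 also: growth inhibition of CAMA-1 cells, read out with a cell viability assay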
Description: SANGER: Inhibition of human CAMA-1 cell growth in a cell viability assay.

Compound	IC50 [µM]
NC1(c2ccc(-c3nc4ccn5c(=O)[nH]nc5c4cc3-c3ccccc3)cc2)CCC1 [MK-2206]	> 4

tested on: HuP-T3; assay: cells; assay type: functional, cell-based; conditions: Homo sapiens;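 also: HuP-T3 cell growth inhibition, read out with a cell viability assay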
Description: SANGER: Inhibition of human HuP-T3 cell growth in a cell viability assay.

Compound	IC50 [µM]
NC1(c2ccc(-c3nc4ccn5c(=O)[nH]nc5c4cc3-c3ccccc3)cc2)CCC1 [MK-2206]	> 4

tested on: FaDu; assay: cells; assay type: functional, cell-based; conditions: Homo sapiens;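 also: cell viability readout of growth inhibition in FaDu cells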
Description: SANGER: Inhibition of human FADU cell growth in a cell viability assay.

Compound	IC50 [µM]
NC1(c2ccc(-c3nc4ccn5c(=O)[nH]nc5c4cc3-c3ccccc3)cc2)CCC1 [MK-2206]	> 4

tested on: T-24; assay: cells; assay type: functional, cell-based; conditions: Homo sapiens;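 also: growth inhibition of T-24 cells, read out with a cell viability assay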
Description: SANGER: Inhibition of human T-24 cell growth in a cell viability assay.

Compound	IC50 [µM]
NC1(c2ccc(-c3nc4ccn5c(=O)[nH]nc5c4cc3-c3ccccc3)cc2)CCC1 [MK-2206]	2.48

tested on: SW1990; assay: cells; assay type: functional, cell-based; conditions: Homo sapiens;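 also: cell growth inhibition determined with a viability assay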
Description: SANGER: Inhibition of human SW1990 cell growth in a cell viability assay.

Compound	IC50 [µM]
NC1(c2ccc(-c3nc4ccn5c(=O)[nH]nc5c4cc3-c3ccccc3)cc2)CCC1 [MK-2206]	> 4

tested on: HCC1395; assay: cells; assay type: functional, cell-based; conditions: Homo sapiens;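 also: growth inhibition of HCC1395 cells, read out by a cell viability assay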
Description: SANGER: Inhibition of human HCC1395 cell growth in a cell viability assay.

Compound	IC50 [µM]
NC1(c2ccc(-c3nc4ccn5c(=O)[nH]nc5c4cc3-c3ccccc3)cc2)CCC1 [MK-2206]	2.75

tested on: NCI-H810; assay: cells; assay type: functional, cell-based; conditions: Homo sapiens;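 also: IC50 reflects inhibition of cancer cell line growth, read out with a cell viability assay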
Description: SANGER: Inhibition of human NCI-H810 cell growth in a cell viability assay.

Compound	IC50 [µM]
NC1(c2ccc(-c3nc4ccn5c(=O)[nH]nc5c4cc3-c3ccccc3)cc2)CCC1 [MK-2206]	> 4

tested on: NY; assay: cells; assay type: functional, cell-based; conditions: Homo sapiens
Description: SANGER: Inhibition of human NY cell growth in a cell viability assay.

Compound	IC50 [µM]
NC1(c2ccc(-c3nc4ccn5c(=O)[nH]nc5c4cc3-c3ccccc3)cc2)CCC1 [MK-2206]	> 4

tested on: HN; assay: cells; assay type: functional, cell-based; conditions: Homo sapiens
Description: SANGER: Inhibition of human HN cell growth in a cell viability assay.

Compound	IC50 [µM]
NC1(c2ccc(-c3nc4ccn5c(=O)[nH]nc5c4cc3-c3ccccc3)cc2)CCC1 [MK-2206]	> 4

tested on: C3A; assay: cells; assay type: functional, cell-based; conditions: Homo sapiens;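 also: growth inhibition of C3A human cells, quantified with a cell viability readout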
Description: SANGER: Inhibition of human C3A cell growth in a cell viability assay.

Compound	IC50 [µM]
NC1(c2ccc(-c3nc4ccn5c(=O)[nH]nc5c4cc3-c3ccccc3)cc2)CCC1 [MK-2206]	> 4

tested on: HTC-C3; assay: cells; assay type: functional, cell-based; conditions: Homo sapiens;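 also: inhibition of cell growth, read out with a cell viability assay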
Description: SANGER: Inhibition of human HTC-C3 cell growth in a cell viability assay.

Compound	IC50 [µM]
NC1(c2ccc(-c3nc4ccn5c(=O)[nH]nc5c4cc3-c3ccccc3)cc2)CCC1 [MK-2206]	> 4

tested on: MC-IXC; assay: cells; assay type: functional, cell-based; conditions: Homo sapiens;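 also: growth inhibition of MC-IXC cells, read out with a cell viability assay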
Description: SANGER: Inhibition of human MC-IXC cell growth in a cell viability assay.

Compound	IC50 [µM]
NC1(c2ccc(-c3nc4ccn5c(=O)[nH]nc5c4cc3-c3ccccc3)cc2)CCC1 [MK-2206]	> 4

tested on: KYSE-270; assay: cells; assay type: functional, cell-based; conditions: Homo sapiens;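 also: cell growth inhibition measured with a viability assay in the human KYSE-270 line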
Description: SANGER: Inhibition of human KYSE-270 cell growth in a cell viability assay.

Compound	IC50 [µM]
NC1(c2ccc(-c3nc4ccn5c(=O)[nH]nc5c4cc3-c3ccccc3)cc2)CCC1 [MK-2206]	> 4

tested on: LCLC-103H cell line; assay: cells; assay type: functional, cell-based; conditions: Homo sapiens
Description: SANGER: Inhibition of human LCLC-103H cell growth in a cell viability assay.

Compound	IC50 [µM]
NC1(c2ccc(-c3nc4ccn5c(=O)[nH]nc5c4cc3-c3ccccc3)cc2)CCC1 [MK-2206]	> 4

tested on: MEL-HO; assay: cells; assay type: functional, cell-based; conditions: Homo sapiens
Description: SANGER: Inhibition of human MEL-HO cell growth in a cell viability assay.

Compound	IC50 [µM]
NC1(c2ccc(-c3nc4ccn5c(=O)[nH]nc5c4cc3-c3ccccc3)cc2)CCC1 [MK-2206]	> 4

tested on: RD; assay: cells; assay type: functional, cell-based; conditions: Homo sapiens
Description: SANGER: Inhibition of human RD cell growth in a cell viability assay.

Compound	IC50 [µM]
NC1(c2ccc(-c3nc4ccn5c(=O)[nH]nc5c4cc3-c3ccccc3)cc2)CCC1 [MK-2206]	> 4

tested on: NCI-H630; assay: cells; assay type: functional, cell-based; conditions: Homo sapiens;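 also: growth inhibition of NCI-H630 cells, read out with a cell viability assay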
Description: SANGER: Inhibition of human NCI-H630 cell growth in a cell viability assay.

Compound	IC50 [µM]
NC1(c2ccc(-c3nc4ccn5c(=O)[nH]nc5c4cc3-c3ccccc3)cc2)CCC1 [MK-2206]	> 4

tested on: CAPAN-1; assay: cells; assay type: functional, cell-based; conditions: Homo sapiens;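 also: growth suppression of CAPAN-1 cells, read out by a cell viability assay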
Description: SANGER: Inhibition of human CAPAN-1 cell growth in a cell viability assay.

Compound	IC50 [µM]
NC1(c2ccc(-c3nc4ccn5c(=O)[nH]nc5c4cc3-c3ccccc3)cc2)CCC1 [MK-2206]	> 4

tested on: RMG-I; assay: cells; assay type: functional, cell-based; conditions: Homo sapiens;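 also: growth inhibition of human RMG-I cells, read out with a cell viability assay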
Description: SANGER: Inhibition of human RMG-I cell growth in a cell viability assay.

Compound	IC50 [µM]
NC1(c2ccc(-c3nc4ccn5c(=O)[nH]nc5c4cc3-c3ccccc3)cc2)CCC1 [MK-2206]	2.16

tested on: NCI-H1437; assay: cells; assay type: functional, cell-based; conditions: Homo sapiens;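 also: growth inhibition of human NCI-H1437 cells, read out by a cell viability assay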
Description: SANGER: Inhibition of human NCI-H1437 cell growth in a cell viability assay.

Compound	IC50 [µM]
NC1(c2ccc(-c3nc4ccn5c(=O)[nH]nc5c4cc3-c3ccccc3)cc2)CCC1 [MK-2206]	> 4

tested on: HuCCT-1; assay: cells; assay type: functional, cell-based, HuCCT1; conditions: Homo sapiens;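 also: growth inhibition of HuCCT-1 cells, read out by a cell viability assay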
Description: SANGER: Inhibition of human HuCCT1 cell growth in a cell viability assay.

Compound	IC50 [µM]
NC1(c2ccc(-c3nc4ccn5c(=O)[nH]nc5c4cc3-c3ccccc3)cc2)CCC1 [MK-2206]	> 4

tested on: SW1710; assay: cells; assay type: functional, cell-based; conditions: Homo sapiens;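 also: growth inhibition of SW1710 cells, determined with a cell viability assay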
Description: SANGER: Inhibition of human SW1710 cell growth in a cell viability assay.

Compound	IC50 [µM]
NC1(c2ccc(-c3nc4ccn5c(=O)[nH]nc5c4cc3-c3ccccc3)cc2)CCC1 [MK-2206]	3.47

tested on: MDA-MB-157; assay: cells; assay type: functional, cell-based; conditions: Homo sapiens
Description: SANGER: Inhibition of human MDA-MB-157 cell growth in a cell viability assay.

Compound	IC50 [µM]
NC1(c2ccc(-c3nc4ccn5c(=O)[nH]nc5c4cc3-c3ccccc3)cc2)CCC1 [MK-2206]	> 4

tested on: U-251; assay: cells; assay type: functional, cell-based; conditions: Homo sapiens;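 also: growth inhibition of human U-251 cells, read out through a cell viability assay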
Description: SANGER: Inhibition of human U251 cell growth in a cell viability assay.

Compound	IC50 [µM]
NC1(c2ccc(-c3nc4ccn5c(=O)[nH]nc5c4cc3-c3ccccc3)cc2)CCC1 [MK-2206]	> 4

tested on: SNU-449; assay: cells; assay type: functional, cell-based; conditions: Homo sapiens
Description: SANGER: Inhibition of human SNU-449 cell growth in a cell viability assay.

Compound	IC50 [µM]
NC1(c2ccc(-c3nc4ccn5c(=O)[nH]nc5c4cc3-c3ccccc3)cc2)CCC1 [MK-2206]	> 4

tested on: CAL-39; assay: cells; assay type: functional, cell-based; conditions: Homo sapiens;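 also: cell viability assay measuring growth inhibition of CAL-39 cells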
Description: SANGER: Inhibition of human CAL-39 cell growth in a cell viability assay.

Compound	IC50 [µM]
NC1(c2ccc(-c3nc4ccn5c(=O)[nH]nc5c4cc3-c3ccccc3)cc2)CCC1 [MK-2206]	> 4

tested on: Calu-3; assay: cells; assay type: functional, cell-based; conditions: Homo sapiens;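 also: growth inhibition of human Calu-3 cells, determined with a cell viability assay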
Description: SANGER: Inhibition of human Calu-3 cell growth in a cell viability assay.

Compound	IC50 [µM]
NC1(c2ccc(-c3nc4ccn5c(=O)[nH]nc5c4cc3-c3ccccc3)cc2)CCC1 [MK-2206]	> 4

tested on: A204; assay: cells; assay type: functional, cell-based; conditions: Homo sapiens;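 also: growth inhibition of human A204 cells, read out with a cell viability assay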
Description: SANGER: Inhibition of human A204 cell growth in a cell viability assay.

Compound	IC50 [µM]
NC1(c2ccc(-c3nc4ccn5c(=O)[nH]nc5c4cc3-c3ccccc3)cc2)CCC1 [MK-2206]	2.84

tested on: SW1463; assay: cells; assay type: functional, cell-based; conditions: Homo sapiens;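 also: growth inhibition of SW1463 cells, determined with a cell viability assay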
Description: SANGER: Inhibition of human SW1463 cell growth in a cell viability assay.

Compound	IC50 [µM]
NC1(c2ccc(-c3nc4ccn5c(=O)[nH]nc5c4cc3-c3ccccc3)cc2)CCC1 [MK-2206]	> 4

tested on: SW780; assay: cells; assay type: functional, cell-based; conditions: Homo sapiens;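 also: growth inhibition of the cells, read out with a cell viability assay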
Description: SANGER: Inhibition of human SW780 cell growth in a cell viability assay.

Compound	IC50 [µM]
NC1(c2ccc(-c3nc4ccn5c(=O)[nH]nc5c4cc3-c3ccccc3)cc2)CCC1 [MK-2206]	> 4
